Like-named read-outs stand apart in the source and are kept apart here.
Target: T1, GST-tagged ROR gamma ligand binding domain (LBD) (Homo sapiens, UniProt P51449)
T1 construct: purchased Invitrogen
T1 sequence (P51449 269-508 limits assumed): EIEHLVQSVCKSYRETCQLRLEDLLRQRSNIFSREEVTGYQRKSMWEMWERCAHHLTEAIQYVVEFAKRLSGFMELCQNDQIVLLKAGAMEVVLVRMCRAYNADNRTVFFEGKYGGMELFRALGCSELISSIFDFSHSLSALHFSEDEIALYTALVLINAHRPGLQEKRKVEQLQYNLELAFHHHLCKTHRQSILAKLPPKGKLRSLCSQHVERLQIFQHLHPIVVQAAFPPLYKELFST
Assay: TR-FRET assay for ROR gamma (Lantha Screen, co-activator peptide recruitment)
Format: biochemical
Conditions: for IC50: class symbols, from dose response curve, read-out: IC50 value; for inhibition at 1 µM: read-out: % inhibition at 1 μM; for inhibition at 10 µM: read-out: % inhibition at 10 μM

[1] = compound concentration 1 μM, TR-FRET ratio 520/495, percent of control
[2] = compound concentration 10 μM, TR-FRET ratio 520/495, percent of control

SMILES	IC50 [nM]	inhibition at 1 µM [1] [%]	inhibition at 10 µM [2] [%]	inhibition at 1 µM [%]	inhibition at 10 µM [%]
O=C(O)c1ccc(-n2nc(C(=O)c3c(Cl)cccc3Cl)c3ccccc32)cc1 [Example 29, 4-[3-(2,6-Dichlorobenzoyl)-1H-indazol-1-yl]benzoic acid]	< 50	96.9	94.3	–	–
O=C(O)c1ccc(-n2nc(C(=O)c3ccccc3)c3ccccc32)c(F)c1 [Example 30, 4-(3-Benzoyl-1H-indazol-1-yl)-3-fluorobenzoic acid]	–	47.1	88.9	–	–
O=C(O)c1ccc(-n2nc(C(=O)c3c(Cl)cccc3Cl)c3ccccc32)c(F)c1 [Example 31, 4-[3-(2,6-Dichlorobenzoyl)-1H-indazol-1-yl]-3-fluorobenzoic acid]	< 50	96.6	91.6	–	–
O=C(O)c1ccc(-n2nc(C(=O)c3c(Cl)cccc3Cl)c3cccc(F)c32)cc1 [Example 32, 4-{3-[(2,6-Dichlorophenyl)carbonyl]-7-fluoro-1H-indazol-1-yl}benzoic acid]	< 50	94.6	90.4	–	–
O=C(O)c1ccc(-n2nc(C(=O)c3c(Cl)cccc3C(F)(F)F)c3ccccc32)c(F)c1 [Example 33, 4-(3-{[2-Chloro-6-(trifluoromethyl)phenyl]carbonyl}-1H-indazol-1-yl)-3-fluorobenzoic acid]	< 50	98.1	94.1	–	–
O=C(O)c1ccc(-n2nc(C(=O)c3c(Cl)cccc3C(F)(F)F)c3ccccc32)cc1 [Example 34, 4-(3-{[2-Chloro-6-(trifluoromethyl)phenyl]carbonyl}-1H-indazol-1-yl)-benzoic acid]	< 50	96.9	92	–	–
O=C(O)c1ccc(-n2nc(C(=O)c3c(Cl)cccc3C3CC3)c3cccc(F)c32)cc1 [Example 35, 4-{3-[(2-Chloro-6-cyclopropylphenyl)carbonyl]-7-fluoro-1H-indazol-1-yl}benzoic acid]	< 50	92.3	89.2	–	–
O=C(O)c1ccc(-n2nc(C(=O)c3c(Cl)cccc3Cl)c3cccnc32)cc1 [Example 36, 4-{3-[(2,6-Dichlorophenyl)carbonyl]-1H-pyrazolo[3,4-b]pyridin-1-yl}benzoic acid]	< 50	95.7	96.4	–	–
O=C(O)c1ccc(-n2nc(C(=O)c3c(Cl)cccc3C3CC3)c3cccnc32)cc1 [Example 37, 4-{3-[(2-Chloro-6-cyclopropylphenyl)carbonyl]-1H-pyrazolo[3,4-b]pyridin-1-yl}benzoic acid]	< 50	97.6	94.6	–	–
O=C(O)c1ccc(-n2nc(C(=O)c3c(Cl)cccc3C(F)(F)F)c3cccnc32)cc1 [Example 38, 4-(3-{[2-Chloro-6-(trifluoromethyl)phenyl]carbonyl}-1H-pyrazolo[3,4-b]pyridin-1-yl)benzoic acid]	< 50	96.8	93.5	–	–
CCOC(=O)c1ccc(-n2cc(C(=O)c3c(Cl)cccc3Cl)c3ccccc32)c(F)c1 [Example 39, Ethyl 4-{3-[(2,6-dichlorophenyl)carbonyl]-1H-indol-1-yl}-3-fluorobenzoate]	–	–	–	15.4	25
CCCOC(=O)c1ccc(-n2cc(C(=O)c3c(Cl)cccc3Cl)c3ccccc32)c(F)c1 [Example 40, Propyl 4-{3-[(2,6-dichlorophenyl)carbonyl]-1H-indol-1-yl}-3-fluorobenzoate]	–	–	–	9.11	–
CCCCOC(=O)c1ccc(-n2cc(C(=O)c3c(Cl)cccc3Cl)c3ccccc32)c(F)c1 [Example 41, Butyl 4-{3-[(2,6-dichlorophenyl)carbonyl]-1H-indol-1-yl}-3-fluorobenzoate]	–	–	–	5.13	–
CCOC(=O)c1ccc(-n2cc(C(=O)c3c(Cl)cccc3Cl)c3cccc(F)c32)c(F)c1 [Example 42, Ethyl 4-[3-(2,6-dichloro-benzoyl)-7-fluoro-1H-indol-1-yl]-3-fluorobenzoate]	–	–	–	0.61	–
CCCOC(=O)c1ccc(-n2cc(C(=O)c3c(Cl)cccc3Cl)c3cccc(F)c32)c(F)c1 [Example 43, Propyl 4-[3-(2,6-dichloro-benzoyl)-7-fluoro-1H-indol-1-yl]-3-fluorobenzoate]	–	–	–	6.99	1.02
CCCCOC(=O)c1ccc(-n2cc(C(=O)c3c(Cl)cccc3Cl)c3cccc(F)c32)c(F)c1 [Example 44, Butyl 4-[3-(2,6-dichloro-benzoyl)-7-fluoro-1H-indol-1-yl]-3-fluorobenzoate]	–	–	–	3.55	2.25
CCOC(=O)c1ccc(-n2nc(Oc3c(Cl)cccc3C(F)(F)F)c3ccccc32)c(F)c1 [Example 45, Ethyl 4-{3-[2-chloro-6-(trifluoromethyl)phenoxy]-1H-indazol-1-yl}-3-fluorobenzoate]	50 to 100	97.9	93.7	–	–
CCCOC(=O)c1ccc(-n2nc(Oc3c(Cl)cccc3C(F)(F)F)c3ccccc32)c(F)c1 [Example 46, Propyl 4-{3-[2-chloro-6-(trifluoromethyl)phenoxy]-1H-indazol-1-yl}-3-fluorobenzoate]	–	10.9	28.5	–	–
CCCCOC(=O)c1ccc(-n2nc(Oc3c(Cl)cccc3C(F)(F)F)c3ccccc32)c(F)c1 [Example 47, Butyl 4-{3-[2-chloro-6-(trifluoromethyl)phenoxy]-1H-indazol-1-yl}-3-fluorobenzoate]	–	52	91.9	–	–
CC(C)OC(=O)c1ccc(-n2nc(Oc3c(Cl)cccc3C(F)(F)F)c3ccccc32)c(F)c1 [Example 48, Isopropyl 4-{3-[2-chloro-6-(trifluoromethyl)phenoxy]-1H-indazol-1-yl}-3-fluorobenzoate]	–	26.3	84.6	–	–

Source: US9682977B2, “Bicyclic heteroaryl indole analogues useful as ROR gamma modulators” (Glenmark Pharmaceuticals S.A., priority 2013, dated 2017)
